The record followed here is patent US20240409585A1, “MACROCYCLIC IMMUNOMODULATORS” (priority 2021, published 2024).

Numbered stars: 1 amine (or outer) side, 2 acyl side, 3 side chain; on linkers, the order of the positions; unused ones are H or OH. Bridge positions count the residues as written; N and C are the ends. Square brackets hold non-standard residues; d marks the D form. Peptide text beside a SMILES is read from it. * marks the point of attachment. Bip(4'-COOH) = N[C@@H](Cc1ccc(-c2ccc(C(=O)O)cc2)cc1)C(=O)O; Bip(4'-NHAc) = CC(=O)Nc1ccc(-c2ccc(C[C@H](N)C(=O)O)cc2)cc1; Phe(3-CF3) = N[C@@H](Cc1cccc(C(F)(F)F)c1)C(=O)O; Ala(morpholin-4-yl) = N[C@@H](CN1CCOCC1)C(=O)O; Phe(4-CONH2) = NC(=O)c1ccc(C[C@H](N)C(=O)O)cc1; Phe(4-COOH) = N[C@@H](Cc1ccc(C(=O)O)cc1)C(=O)O; X5 = CS(=O)(=O)NC(=O)C[C@H](N[*:1])C(=O)[*:2]; Bip = N[C@@H](Cc1ccc(-c2ccccc2)cc1)C(=O)O; Abu(3R-NH2) = C[C@@H](N)[C@H](N)C(=O)O; Phe(3-Me) = Cc1cccc(C[C@H](N)C(=O)O)c1; Phe(4-Me) = Cc1ccc(C[C@H](N)C(=O)O)cc1; Abu(3S-NH2) = C[C@H](N)[C@H](N)C(=O)O; Phe(2-F) = N[C@@H](Cc1ccccc1F)C(=O)O; Val(3-OH) = CC(C)(O)[C@H](N)C(=O)O; hPhe = N[C@@H](CCc1ccccc1)C(=O)O; Cha = N[C@@H](CC1CCCCC1)C(=O)O; Carboxymethyl = O=C(O)C*; NMeA = CN[C@@H](C)C(=O)O; Orn = NCCC[C@H](N)C(=O)O; Dab = NCC[C@H](N)C(=O)O

In one assay the target is T1, Alexa fluor-647 labeled human PD-L1-Ig binding to Jurkat cell line over-expressing human PD-1 (Homo sapiens, UniProt Q15116).
T1 construct: expressed in transfected cells; host or cells: Jurkat
T1 sequence (Q15116 25-288): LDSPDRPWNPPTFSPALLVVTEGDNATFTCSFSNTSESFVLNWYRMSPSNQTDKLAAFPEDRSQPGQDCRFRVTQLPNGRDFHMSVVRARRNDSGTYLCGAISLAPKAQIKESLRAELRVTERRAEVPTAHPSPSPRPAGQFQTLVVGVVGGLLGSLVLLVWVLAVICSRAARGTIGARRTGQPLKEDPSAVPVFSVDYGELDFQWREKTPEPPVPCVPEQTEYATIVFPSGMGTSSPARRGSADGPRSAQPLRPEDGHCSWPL
Description: Jurkat-PD-1 Cell Binding High-Content Screening Assay (CBA): Method 3 (Alexa fluor-647 labeled PD-L1-Ig). Conditions: Jurkat-PD-1 cells, Alexa fluor-647 labeled PD-L1-Ig 177 nM; head μM; read-out: CBA Method 3 μM. The essentials: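 Readout by high-content imaging of PFA-fixed, Hoechst-stained cells after 1 h with 177 nM (final) Alexa fluor-647 PD-L1-Ig. Compound was added first to hPD-1 Jurkat cells in RPMI plus 10% FCS for 2 h at 37 °C.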
Consider `Cc1cccc(C[C@@H]2NC(=O)[C@H](CC(=O)O)NC(=O)[C@H](Cc3ccc(OCC(=O)O)cc3)NC(=O)[C@H](Cc3ccccc3F)NC(=O)CSC[C@@H](C(=O)N[C@@H](CCN)C(N)=O)NC(=O)[C@H](CCCN)NC(=O)[C@H](C(C)C)NC(=O)[C@H](CC3CCCCC3)NC(=O)[C@H](CCN)NC(=O)[C@@H](CC(C)C)NC(=O)[C@H](C)N(C)C(=O)[C@H](CCC(N)=O)NC(=O)[C@H](Cc3ccc(-c4ccccc4)cc3)NC(=O)[C@H](Cc3ccc(C(=O)O)cc3)NC2=O)c1` [Example 5293] ({CH2CO}-[Phe(2-F)]Y(Carboxymethyl)D[Phe(3-Me)][Phe(4-COOH)][Bip]Q[NMeA][dL][Dab][Cha]V[Orn]C[Dab]-NH2; thioether N-14), for which the IC50 came out at 0.06 µM.

For the compound `Cc1cccc(C[C@@H]2NC(=O)[C@H](CC(=O)O)NC(=O)[C@H](Cc3ccc(-c4ccc(C(=O)O)cc4)cc3)NC(=O)[C@H](CN3CCOCC3)NC(=O)CSC[C@@H](C(=O)N[C@@H](CCN)C(N)=O)NC(=O)[C@H](CO)NC(=O)[C@H](C(C)(C)O)NC(=O)[C@H](CC3CCCCC3)NC(=O)[C@H](Cc3cnc[nH]3)NC(=O)[C@@H](CC(C)C)NC(=O)[C@H](C)N(C)C(=O)[C@H](Cc3ccc(C(=O)O)cc3)NC(=O)[C@H](Cc3ccc(-c4ccccc4)cc3)NC(=O)[C@H](Cc3ccc(-c4ccc(C(=O)O)cc4)cc3)NC2=O)c1` [Example 5122] ({CH2CO}-[Ala(morpholin-4-yl)][Bip(4'-COOH)]D[Phe(3-Me)][Bip(4'-COOH)][Bip][Phe(4-COOH)][NMeA][dL]H[Cha][Val(3-OH)]SC[Dab]-NH2; thioether N-14), the IC50 came out at 0.11 µM. The same measure, in the same setting: under `CC(C)C[C@H]1NC(=O)[C@H](C)N(C)C(=O)[C@H](Cc2ccc(C(=O)O)cc2)NC(=O)[C@H](Cc2ccc(-c3ccccc3)cc2)NC(=O)[C@H](Cc2ccc(-c3ccc(C(=O)O)cc3)cc2)NC(=O)[C@H](Cc2cccc(C(F)(F)F)c2)NC(=O)[C@H](CC(=O)O)NC(=O)[C@H](Cc2ccc(C(=O)O)cc2)NC(=O)[C@H](Cc2ccc(OCC(=O)O)cc2)NC(=O)CSC[C@@H](C(=O)N[C@@H](CCN)C(N)=O)NC(=O)[C@H](CCC(=O)O)NC(=O)[C@H](C(C)C)NC(=O)[C@H](CC2CCCCC2)NC(=O)[C@H](CCN)NC1=O` [Example 5164] ({CH2CO}-Y(Carboxymethyl)[Phe(4-COOH)]D[Phe(3-CF3)][Bip(4'-COOH)][Bip][Phe(4-COOH)][NMeA][dL][Dab][Cha]VEC[Dab]-NH2; thioether N-14) stands 0.15 µM; under `CC(=O)Nc1ccc(-c2ccc(C[C@@H]3NC(=O)[C@H](Cc4cccc(C(F)(F)F)c4)NC(=O)[C@H](CC(=O)NS(C)(=O)=O)NC(=O)[C@H](Cc4ccc(C(=O)O)cc4)NC(=O)[C@H]([C@H](C)N)NC(=O)CSC[C@@H](C(=O)N[C@@H](CCN)C(N)=O)NC(=O)[C@H](CCC(N)=O)NC(=O)[C@H](C(C)C)NC(=O)[C@H](CC4CCCCC4)NC(=O)[C@H](CCN)NC(=O)[C@@H](CC(C)C)NC(=O)[C@H](C)N(C)C(=O)[C@H](Cc4ccc(C(N)=O)cc4)NC(=O)[C@H](Cc4ccc(-c5ccccc5)cc4)NC3=O)cc2)cc1` [Example 5099] ({CH2CO}-[Abu(3S-NH2)][Phe(4-COOH)][X5][Phe(3-CF3)][Bip(4'-NHAc)][Bip][Phe(4-CONH2)][NMeA][dL][Dab][Cha]VQC[Dab]-NH2; thioether N-14), 0.65 µM.

As for `Cc1cccc(C[C@@H]2NC(=O)[C@H](CC(=O)O)NC(=O)[C@H](Cc3ccc(C(=O)O)cc3)NC(=O)[C@H](C)NC(=O)CSC[C@@H](C(=O)N[C@@H](CCN)C(N)=O)NC(=O)[C@H](CCC(=O)O)NC(=O)[C@H](C(C)C)NC(=O)[C@H](CC3CCCCC3)NC(=O)[C@H](CCN)NC(=O)[C@@H](CC(C)C)NC(=O)[C@H](C)N(C)C(=O)[C@H](Cc3ccc(OCC(=O)O)cc3)NC(=O)[C@H](Cc3ccc(-c4ccccc4)cc3)NC(=O)[C@H](Cc3ccc(C(=O)O)cc3)NC2=O)c1` [Example 5138] ({CH2CO}-A[Phe(4-COOH)]D[Phe(3-Me)][Phe(4-COOH)][Bip]Y(Carboxymethyl)[NMeA][dL][Dab][Cha]VEC[Dab]-NH2; thioether N-14), the IC50 is 0.03 µM. `CC(=O)Nc1ccc(-c2ccc(C[C@@H]3NC(=O)[C@H](Cc4cccc(C(F)(F)F)c4)NC(=O)[C@H](CC(=O)O)NC(=O)[C@H](Cc4ccc(C(=O)O)cc4)NC(=O)[C@H](CN4CCOCC4)NC(=O)CSC[C@@H](C(=O)N[C@@H](CCN)C(N)=O)NC(=O)[C@H](CCC(=O)O)NC(=O)[C@H](C(C)C)NC(=O)[C@H](CC4CCCCC4)NC(=O)[C@H](CCN)NC(=O)[C@@H](CC(C)C)NC(=O)[C@H](C)N(C)C(=O)[C@H](Cc4ccc(C(=O)O)cc4)NC(=O)[C@H](Cc4ccc(-c5ccccc5)cc4)NC3=O)cc2)cc1` [Example 5159] ({CH2CO}-[Ala(morpholin-4-yl)][Phe(4-COOH)]D[Phe(3-CF3)][Bip(4'-NHAc)][Bip][Phe(4-COOH)][NMeA][dL][Dab][Cha]VEC[Dab]-NH2; thioether N-14): the IC50 was found to be 0.04 µM. Same read-out and setting: under `CC(=O)Nc1ccc(-c2ccc(C[C@@H]3NC(=O)[C@H](Cc4cccc(C(F)(F)F)c4)NC(=O)[C@H](CC(=O)O)NC(=O)[C@H](Cc4ccc(C(=O)O)cc4)NC(=O)[C@H](Cc4ccc(OCC(=O)O)cc4)NC(=O)CSC[C@@H](C(=O)N[C@@H](CCN)C(N)=O)NC(=O)[C@H](CCC(=O)O)NC(=O)[C@H](C(C)C)NC(=O)[C@H](CC4CCCCC4)NC(=O)[C@H](CCN)NC(=O)[C@@H](CC(C)C)NC(=O)[C@H](C)N(C)C(=O)[C@H](Cc4ccc(OCC(=O)O)cc4)NC(=O)[C@H](Cc4ccc(-c5ccccc5)cc4)NC3=O)cc2)cc1` [Example 5156] ({CH2CO}-Y(Carboxymethyl)[Phe(4-COOH)]D[Phe(3-CF3)][Bip(4'-NHAc)][Bip]Y(Carboxymethyl)[NMeA][dL][Dab][Cha]VEC[Dab]-NH2; thioether N-14) stands 0.07 µM.

Still in this assay, the particulars now being: Jurkat-PD-1 cells, Alexa fluor-647 labeled PD-L1-Ig 177 nM; nM; read-out: CBA Method 3.
For `CC(C)C[C@H]1NC(=O)[C@H](C)N(C)C(=O)[C@H](CCC(N)=O)NC(=O)[C@H](Cc2ccc(-c3ccccc3)cc2)NC(=O)[C@H](CCc2ccccc2)NC(=O)[C@H](Cc2cccc(C(F)(F)F)c2)NC(=O)[C@H](CC(=O)O)NC(=O)[C@H](Cc2ccc(O)cc2)NC(=O)[C@H]([C@@H](C)N)NC(=O)CSC[C@@H](C(=O)N[C@@H](CCN)C(N)=O)NC(=O)[C@H](CCC(N)=O)NC(=O)[C@H](C(C)C)NC(=O)[C@H](CC2CCCCC2)NC(=O)[C@H](CCN)NC1=O` [Example 5242] ({CH2CO}-[Abu(3R-NH2)]YD[Phe(3-CF3)][hPhe][Bip]Q[NMeA][dL][Dab][Cha]VQC[Dab]-NH2; thioether N-14), the IC50 is 0.0021 µM.

Consider `Cc1ccc(C[C@@H]2NC(=O)CSC[C@@H](C(=O)N[C@@H](CCN)C(N)=O)NC(=O)[C@H](CCCN)NC(=O)[C@H](C(C)C)NC(=O)[C@H](CC3CCCCC3)NC(=O)[C@H](CCN)NC(=O)[C@@H](CC(C)C)NC(=O)[C@H](C)N(C)C(=O)[C@H](CCC(N)=O)NC(=O)[C@H](Cc3ccc(-c4ccccc4)cc3)NC(=O)[C@H](Cc3ccc(C(=O)O)cc3)NC(=O)[C@H](Cc3cccc(C)c3)NC(=O)[C@H](CC(=O)O)NC(=O)[C@H](Cc3ccc(OCC(=O)O)cc3)NC2=O)cc1` [Example 5289] ({CH2CO}-[Phe(4-Me)]Y(Carboxymethyl)D[Phe(3-Me)][Phe(4-COOH)][Bip]Q[NMeA][dL][Dab][Cha]V[Orn]C[Dab]-NH2; thioether N-14), for which the IC50 worked out at 0.0008 µM. Still for that read-out and setting: under `Cc1cccc(C[C@@H]2NC(=O)[C@H](CC(=O)O)NC(=O)[C@H](Cc3ccc(C(=O)O)cc3)NC(=O)[C@H](CC3CCCCC3)NC(=O)CSC[C@@H](C(=O)N[C@@H](CCN)C(N)=O)NC(=O)[C@H](CCC(=O)O)NC(=O)[C@H](C(C)C)NC(=O)[C@H](CC3CCCCC3)NC(=O)[C@H](CCN)NC(=O)[C@@H](CC(C)C)NC(=O)[C@H](C)N(C)C(=O)[C@H](Cc3ccc(C(=O)O)cc3)NC(=O)[C@H](Cc3ccc(-c4ccccc4)cc3)NC(=O)[C@H](Cc3ccc(C(=O)O)cc3)NC2=O)c1` [Example 5196] ({CH2CO}-[Cha][Phe(4-COOH)]D[Phe(3-Me)][Phe(4-COOH)][Bip][Phe(4-COOH)][NMeA][dL][Dab][Cha]VEC[Dab]-NH2; thioether N-14) stands 0.0072 µM. Same read-out and setting: under `Cc1cccc(C[C@@H]2NC(=O)[C@H](CC(=O)O)NC(=O)[C@H](Cc3ccc(OCC(=O)O)cc3)NC(=O)[C@H](Cc3ccc(O)cc3)NC(=O)CSC[C@@H](C(=O)N[C@@H](CCN)C(N)=O)NC(=O)[C@H](CCCN)NC(=O)[C@H](C(C)C)NC(=O)[C@H](CC3CCCCC3)NC(=O)[C@H](CCN)NC(=O)[C@@H](CC(C)C)NC(=O)[C@H](C)N(C)C(=O)[C@H](CCC(N)=O)NC(=O)[C@H](Cc3ccc(-c4ccccc4)cc3)NC(=O)[C@H](Cc3ccc(C(=O)O)cc3)NC2=O)c1` [Example 5271] ({CH2CO}-YY(Carboxymethyl)D[Phe(3-Me)][Phe(4-COOH)][Bip]Q[NMeA][dL][Dab][Cha]V[Orn]C[Dab]-NH2; thioether N-14) stands 0.001 µM; under `CC(=O)Nc1ccc(-c2ccc(C[C@@H]3NC(=O)[C@H](Cc4cccc(C(F)(F)F)c4)NC(=O)[C@H](CC(=O)O)NC(=O)[C@H](Cc4ccc(C(=O)O)cc4)NC(=O)[C@H]([C@H](C)N)NC(=O)CSC[C@@H](C(=O)N[C@@H](CCN)C(N)=O)NC(=O)[C@H](CCC(=O)O)NC(=O)[C@H](C(C)C)NC(=O)[C@H](CC4CCCCC4)NC(=O)[C@H](CCN)NC(=O)[C@@H](CC(C)C)NC(=O)[C@H](C)N(C)C(=O)[C@H](Cc4ccc(C(N)=O)cc4)NC(=O)[C@H](Cc4ccc(-c5ccccc5)cc4)NC3=O)cc2)cc1` [Example 5118] ({CH2CO}-[Abu(3S-NH2)][Phe(4-COOH)]D[Phe(3-CF3)][Bip(4'-NHAc)][Bip][Phe(4-CONH2)][NMeA][dL][Dab][Cha]VEC[Dab]-NH2; thioether N-14), 0.0017 µM.
